Experimental findings from patent US11827628B2, “Compositions and methods for inhibition of the JAK pathway” (Rigel Pharmaceuticals, Inc., priority 2005, dated 2023) are described below.

The experiment relates to up-regulation of ICAM-1 (CD54) by IFNγ in U937 human monocytic cells. The experiment in a line: U937 IFNγ ICAM1 FACS Assay. Format: cell-based. Particulars: U937 cells stimulated with IFNγ; ICAM-1 expression by FACS; read-out: IC50, Example 44. The essentials: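 U937 cells in 10% FCS RPMI were preincubated 30 min at 37 °C with an 8-point, 3-fold compound dilution series in duplicate, then stimulated with IFNγ for 18–24 h. Surface ICAM-1 was stained with APC anti-ICAM-1 and read by flow cytometry as geometric mean on live-gated cells. EC50 was derived.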
One may read the IC50 as the point on the concentration scale where inhibition reaches its midpoint. Turning to `CC(Oc1ccc(Nc2nc(Nc3cccc(S(N)(=O)=O)c3)ncc2F)cc1)C(N)=O` (racemic) [Compound I-117, Racemic N4-[4-(1-Aminocarbonyl)ethoxy]phenyl-N2-(3-aminosulfonyl)phenyl-5-fluoro-2,4-pyrimidinediamine], the IC50 came out at 14600 nM.
For the compound `Cc1cc(Nc2nc(Nc3ccc(S(N)(=O)=O)cc3)ncc2F)ccc1OC(C)C(N)=O` (racemic) [Compound I-119, Racemic N4-[4-(1-Aminocarbonyl)ethoxy-3-methyl]phenyl-N2-(4-aminosulfonyl)phenyl-5-fluoro-2,4-pyrimidinediamine], the concentration for half-maximal inhibition (IC50) is 11900 nM.
The value for `Cc1cc(Nc2nc(Nc3cccc(S(N)(=O)=O)c3)ncc2F)ccc1OC(C)C(N)=O` (racemic) [Compound I-120, Racemic N4-[4-(1-Aminocarbonyl)ethoxy-3-methyl]phenyl-N2-(3-aminosulfonyl)phenyl-5-fluoro-2,4-pyrimidinediamine] was 4460 nM; that for `Cc1cc(Nc2nc(Nc3ccc(C)c(S(N)(=O)=O)c3)ncc2F)ccc1OC(C)C(N)=O` (racemic) [Compound I-121, Racemic N4-[4-(1-Aminocarbonyl)ethoxy-3-methyl]phenyl-N2-(3-aminosulfonyl-4-methyl)phenyl-5-fluoro-2,4-pyrimidinediamine] was 2990 nM; that for `Cc1cc(Nc2nc(Nc3ccc(S(N)(=O)=O)cc3)ncc2F)cc(C)c1OC(C)C(N)=O` (racemic) [Compound I-122, Racemic N4-[4-(1-Aminocarbonyl)ethoxy-3,5-dimethyl]phenyl-N2-(4-aminosulfonyl)phenyl-5-fluoro-2,4-pyrimidinediamine] was 15700 nM.
The value for `Cc1cc(Nc2nc(Nc3cccc(S(N)(=O)=O)c3)ncc2F)cc(C)c1OC(C)C(N)=O` (racemic) [Compound I-123, Racemic N4-[4-(1-Aminocarbonyl)ethoxy-3,5-dimethyl]phenyl-N2-(3-aminosulfonyl)phenyl-5-fluoro-2,4-pyrimidinediamine] was 2220 nM.
Regarding `Cc1ccc(Nc2ncc(F)c(Nc3cc(C)c(OC(C)C(N)=O)c(C)c3)n2)cc1S(N)(=O)=O` (racemic) [Compound I-124, Racemic N4-[4-(1-Aminocarbonyl)ethoxy-3,5-dimethyl]phenyl-N2-(3-aminosulfonyl-4-methyl)phenyl-5-fluoro-2,4-pyrimidinediamine], the concentration for half-maximal inhibition (IC50) was found to be 1330 nM.
Turning to `Cc1ccc(Nc2ncc(F)c(Nc3ccc4c(c3)CC(C(=O)N(C)C)O4)n2)cc1S(N)(=O)=O` (racemic) [VII-26, Racemic N2-(3-Aminosulfonyl-4-methylphenyl)-N4-[2-(N,N-dimethylaminocarbonyl)-2,3-dihydrobenzofuran-5-yl]-5-fluoro-2,4-pyrimidinediamine], the IC50 amounted to 9260 nM.
The value for `CN(C)C(=O)C1Cc2cc(Nc3nc(Nc4ccc(Cl)c(S(N)(=O)=O)c4)ncc3F)ccc2O1` (racemic) [VII-27, Racemic N2-(3-Aminosulfonyl-4-chlorophenyl)-N4-[2-(N,N-dimethylaminocarbonyl)-2,3-dihydrobenzofuran-5-yl]-5-fluoro-2,4-pyrimidinediamine] was 6250 nM; that for `CC(C)c1ccc(Nc2ncc(F)c(Nc3ccc(OCC#N)cc3)n2)cc1S(N)(=O)=O` [Compound I-8, N2-(3-Aminosulfonyl-4-iso-propylphenyl)-N4-(4-cyanomethyleneoxyphenyl)-5-fluoro-2,4-pyrimidinediamine] was 410 nM; that for `CN1CCN(c2ccc(Nc3ncc(F)c(Nc4ccc(OCC#N)cc4)n3)cc2S(N)(=O)=O)CC1` [Compound I-9, N2-[3-Aminosulfonyl-4-(4-methylpiperazin-1-yl)phenyl]-5-fluoro-N4-(4-cyanomethyleneoxyphenyl)-2,4-pyrimidinediamine] was 787 nM.
With `CN1CCN(c2ccc(Nc3ncc(F)c(Nc4ccc(OCC#N)c(F)c4)n3)cc2S(N)(=O)=O)CC1` [Compound I-10, N2-[3-Aminosulfonyl-4-(4-methylpiperazine-1-yl)phenyl]-5-fluoro-N4-(4-cyanomethyleneoxy-3-fluorophenyl)-2,4-pyrimidinediamine], the IC50 is 261 nM.
In the case of `Cc1ccc(Nc2ncc(F)c(Nc3ccc(OCC#N)c(F)c3)n2)cc1S(N)(=O)=O` [Compound I-11, N2-(3-Aminosulfonyl-4-methylphenyl)-5-fluoro-N4-(4-cyanomethyleneoxy-3-fluorophenyl)-2,4-pyrimidinediamine], the half-maximal inhibitory concentration (IC50) was found to be 329 nM.
Take `N#CCOc1ccc(Nc2nc(Nc3cccc(S(N)(=O)=O)c3)ncc2F)cc1F` [Compound I-12, N2-(3-Aminosulfonylphenyl)-5-fluoro-N4-(4-cyanomethyleneoxy-3-fluorophenyl)-2,4-pyrimidinediamine]: the IC50 amounted to 222 nM.
For `N#CCOc1ccc(Nc2nc(Nc3cccc(S(N)(=O)=O)c3)ncc2Br)cc1` [Compound I-13, N2-(3-Aminosulfonylphenyl)-5-bromo-N4-(4-cyanomethyleneoxyphenyl)-2,4-pyrimidinediamine], the IC50 came to 43.5 nM.
For `Cc1ccc(Nc2ncc(Br)c(Nc3ccc(OCC#N)cc3)n2)cc1S(N)(=O)=O` [Compound I-14, N2-(3-Aminosulfonyl-4-methylphenyl)-5-bromo-N4-(4-cyanomethyleneoxyphenyl)-2,4-pyrimidinediamine], the IC50 was 41.8 nM.
As for `C[Si](C)(C)C#Cc1cnc(Nc2cccc(S(N)(=O)=O)c2)nc1Nc1ccc(OCC#N)cc1` [Compound I-15, N2-(3-Aminosulfonylphenyl)-N4-(4-cyanomethyleneoxyphenyl)-5-trimethylsilylacetylene-2,4-pyrimidinediamine], the IC50 came out at 4970 nM.
The value for `Cc1ccc(Nc2ncc(F)c(Nc3cc(C)c(OCC(N)=O)c(C)c3)n2)cc1S(N)(=O)=O` [Compound I-96, N4-(4-Aminocarbonylmethoxy-3,5-dimethyl)phenyl-N2-(3-aminosulfonyl-4-methyl)phenyl-5-fluoro-2,4-pyrimidinediamine] was 3300 nM.
The value for `Cc1cc(Nc2nc(Nc3ccc(S(N)(=O)=O)cc3)ncc2F)ccc1OCC(N)=O` [Compound I-113, N4-(4-Aminocarbonylmethoxy-3-methyl)phenyl-N2-(4-aminosulfonyl)phenyl-5-fluoro-2,4-pyrimidinediamine] was 13500 nM; that for `Cc1ccc(Nc2ncc(F)c(Nc3ccc(OC(C)C(N)=O)cc3)n2)cc1S(N)(=O)=O` (stereo not shown) [Compound I-118, N4-[4-(1-Aminocarbonyl)ethoxy]phenyl-N2-(3-aminosulfonyl-4-methyl)phenyl-5-fluoro-2,4-pyrimidinediamine] was 2430 nM; that for `CC(C)(Oc1ccc(Nc2nc(Nc3cccc(S(N)(=O)=O)c3)ncc2F)cc1)C(N)=O` [Compound I-126, N4-[4-(1-Aminocarbonyl-1-methyl)ethoxy]phenyl-N2-(3-aminosulfonyl)phenyl-5-fluoro-2,4-pyrimidinediamine] was 7200 nM.
In the case of `Cc1ccc(Nc2ncc(F)c(Nc3ccc(OC(C)(C)C(N)=O)cc3)n2)cc1S(N)(=O)=O` [Compound I-127, N4-[4-(1-Aminocarbonyl-1-methyl)ethoxy]phenyl-N2-(3-aminosulfonyl-4-methyl)phenyl-5-fluoro-2,4-pyrimidinediamine], the IC50 was determined as 2510 nM.
With `Cc1ccc(Nc2ncc(F)c(Nc3ccc(OCc4ccccn4)cc3)n2)cc1S(N)(=O)=O` [Compound I-160, N2-(3-Aminosulfonyl-4-methylphenyl)-5-fluoro-N4-[4-(2-pyridinyl)methyleneoxyphenyl]-2,4-pyrimidinediamine], the IC50 came to 923 nM.
The value for `NS(=O)(=O)c1ccc(Nc2ncc(F)c(Nc3ccc(OCc4ccccn4)cc3)n2)cc1` [Compound I-163, N2-(4-Aminosulfonylphenyl)-5-fluoro-N4-[4-(2-pyridinyl)methyleneoxyphenyl]-2,4-pyrimidinediamine] was 1410 nM; that for `CCN(CC)CCNS(=O)(=O)c1ccc(Nc2ncc(F)c(Nc3ccc(OCc4ccccn4)cc3)n2)cc1` [Compound I-165, N2-[4-(2-N,N-Diethylaminoethyl)aminosulfonylphenyl)-5-fluoro-N4-[4-(2-pyridinyl)methyleneoxyphenyl]-2,4-pyrimidinediamine] was 1640 nM.
The value for `CNS(=O)(=O)c1cc(Nc2ncc(F)c(Nc3ccc(-c4ccccn4)c(OCF)c3)n2)ccc1C` [Compound I-173, 5-Fluoro-N2-[3-N-(methyl)aminosulfonyl-4-methylphenyl]-N4-[4-(2-pyridinyl)-3-fluoromethyleneoxyphenyl]-2,4-pyrimidinediamine] was 15500 nM; that for `Cc1cnc(Nc2cccc(S(N)(=O)=O)c2)nc1Nc1ccc(OCc2ccccn2)cc1` [Compound I-179, N2-(3-Aminosulfonylphenyl)-5-methyl-N4-[4-(2-pyridinyl)methyleneoxyphenyl]-2,4-pyrimidinediamine] was 117 nM.
Consider `CNS(=O)(=O)c1cc(Nc2ncc(C)c(Nc3ccc(OCc4ccccn4)cc3)n2)ccc1C` [Compound I-180, 5-Methyl-N2-[3-(N-methylaminosulfony)-4-methylphenyl]-N4-[4-(2-pyridinyl)methyleneoxyphenyl]-2,4-pyrimidinediamine], for which the IC50 was 456 nM.
The value for `Cc1ccc(Nc2ncc(F)c(Nc3cccc(OCc4cccnc4)c3)n2)cc1S(N)(=O)=O` [Compound I-183, N2-(3-Aminosulfonyl-4-methylphenyl)-5-fluoro-N4-[3-(3-pyridinyl)methyleneoxyphenyl]-2,4-pyrimidinediamine] was 2280 nM; that for `CNS(=O)(=O)c1cc(Nc2ncc(F)c(Nc3cccc(OCc4cccnc4)c3)n2)ccc1C` [Compound I-184, 5-Fluoro-N2-[3-(N-methylaminosulfony)-4-methylphenyl]-5-fluoro-N4-[3-(3-pyridinyl)methyleneoxyphenyl]-2,4-pyrimidinediamine] was 6620 nM; that for `CCN(CC)CCNS(=O)(=O)c1ccc(Nc2ncc(F)c(Nc3cccc(OCc4cccnc4)c3)n2)cc1` [Compound I-186, N2-[4-(2-N,N-Diethylaminoethyl)aminosulfonylphenyl)-5-fluoro-N4-[3-(3-pyridinyl)methyleneoxyphenyl]-2,4-pyrimidinediamine] was 3530 nM.
